Assay results: patent US20160220569A1, “CDK4/6 Inhibitor Dosage Formulations For The Protection Of Hematopoietic Stem And Progenitor Cells During Chemotherapy” (G1 Therapeutics, Inc., priority 2015, published 2016)
Where two headings read alike, the source gives them in different places.

Assay: 14-day oral gavage toxicokinetic study in rats
Format: in vivo
Conditions: female, rat, plasma, po; for concentration at 1 h / concentration at 2 h / concentration at 4 h / concentration at 8 h / concentration at 12 h / concentration at 24 h / concentration at 0.5 h / concentration at […]: rats; for concentration at […]: Day 14, […]; for half-life: read-out: t½ (converted)
Procedure: Plasma was obtained from blood samples collected from rats in a composite sampling scheme, with 3 samples collected per sex, per dose, at each target collection time, as illustrated in Table 21 to Table 25. Samples were collected from the vehicle control group on Day 1 and Day 14 at 3 hour after administration. […] Blood samples were collected in tubes containing K3EDTA as an anticoagulant and placed on ice until processed to plasma via centrifugation. Samples were stored frozen at −80° C. until shipment to the bioanalytical laboratory for analysis.
The following parameters were determined:
Cmax: Maximum observed plasma concentration (ng/mL).
A value of 0 ng/mL was assigned to all values below the lower limit of quantitation (BLQ, <10.0 ng/mL).
AUC(0-inf): Area under the plasma concentration vs. time curve extrapolated from 0 to infinity (ng*h/mL), calculated as AUC(0-t)+AUC(t-inf) where AUC(t-inf) is calculated as last measurable concentration (CLast) divided by ke, where ke is the elimination rate constant determined by linear regression of the last three analytically measured points on the log plasma concentration vs. time curve. The selection criteria of the data points for inclusion in the calculation of ke required that at least three data points representing the terminal phase (after Tmax) were regressed and that R2≧0.850 when rounded.
CL: Clearance (L/h/kg), calculated as the dose divided by AUC(0-t).
Vd: Volume of distribution (L/kg), calculated as dose divided by the product of ke and AUC(0-inf).
Vdss: Steady state volume of distribution (L/kg), calculated as clearance […] mean residence time, where mean residence time is calculated as the area under the first moment curve divided by AUC(0-t).
t½: Elimination half-life (h), calculated as ln(2)/ke, where ke is the elimination rate constant determined by linear regression. Half-life was defined as not determined if regression criteria (specified in AUC(0-inf) above) were not met.
Cmax/Dose: Normalized Cmax, calculated as Cmax divided by total dose.
AUC/Dose: Normalized AUC, calculated as AUC(0-t) divided by total dose.
ii. Statistical Analysis Mean and standard deviation (SD) were calculated in Watson. Values of BLQ were assigned a value of 0 ng/mL for mean calculations. Concentration values and derived TK parameters were reported to three significant figures.

[1] = 2 mg/kg, oral 2 mg/kg, Study Day 1, Female
[2] = 2 mg/kg, oral 2 mg/kg, Study Day 14, Female
[3] = 5 mg/kg, oral 5 mg/kg, Study Day 1, Female
[4] = 5 mg/kg, oral 5 mg/kg, Study Day 14, Female

SMILES: CN1CCN(c2ccc(Nc3ncc4cc5n(c4n3)C3(CCCCC3)CNC5=O)nc2)CC1 [Compound 1, 2′-((5-(4-methylpiperazin-1-yl)pyridin-2-yl)amino)-7′,8′-dihydro-6′H-spiro[cyclohexane-1,9′-pyrazino[1′,2′:1,5]pyrrolo[2,3-d]pyrimidin]-6′-one]
- concentration at 1 h (2 mg/kg, Mean Compound 1 Plasma Concentration, oral 2 mg/kg, Day 1, 1 h, Female): 91.4 ng/mL
- concentration at 2 h (2 mg/kg, Mean Compound 1 Plasma Concentration, oral 2 mg/kg, Day 1, 2 h, Female): 196 ng/mL
- concentration at 4 h (2 mg/kg, Mean Compound 1 Plasma Concentration, oral 2 mg/kg, Day 1, 4 h, Female): 175 ng/mL
- concentration at 8 h (2 mg/kg, Mean Compound 1 Plasma Concentration, oral 2 mg/kg, Day 1, 8 h, Female): 96.7 ng/mL
- concentration at 12 h (2 mg/kg, Mean Compound 1 Plasma Concentration, oral 2 mg/kg, Day 1, 12 h, Female): 82.2 ng/mL
- concentration at 24 h (2 mg/kg, Mean Compound 1 Plasma Concentration, oral 2 mg/kg, Day 1, 24 h, Female): 13 ng/mL
- concentration at 0.5 h (2 mg/kg, Mean Compound 1 Plasma Concentration, oral 2 mg/kg, Day 14, 0.5 h, Female): 150 ng/mL
- concentration at 1 h (2 mg/kg, Mean Compound 1 Plasma Concentration, oral 2 mg/kg, Day 14, 1 h, Female): 111 ng/mL
- concentration at 2 h (2 mg/kg, Mean Compound 1 Plasma Concentration, oral 2 mg/kg, Day 14, 2 h, Female): 212 ng/mL
- concentration at 8 h (2 mg/kg, Mean Compound 1 Plasma Concentration, oral 2 mg/kg, Day 14, 8 h, Female): 117 ng/mL
- concentration at 12 h (2 mg/kg, Mean Compound 1 Plasma Concentration, oral 2 mg/kg, Day 14, 12 h, Female): 48.7 ng/mL
- concentration at 24 h (2 mg/kg, Mean Compound 1 Plasma Concentration, oral 2 mg/kg, Day 14, 24 h, Female): 10.8 ng/mL
- concentration at […] (2 mg/kg, Mean Compound 1 Plasma Concentration, oral 2 mg/kg, Female): 10 ng/mL
- AUC(0-inf) [1]: 2160 ng·h/mL
- AUC(0-t) [1]: 2060 ng·h/mL
- Cmax [1]: 196 ng/mL
- Tmax [1]: 2 h
- half-life [1]: 5.25 h
- AUC(0-inf) [2]: 1850 ng·h/mL
- AUC(0-t) [2]: 1770 ng·h/mL
- Cmax [2]: 212 ng/mL
- Tmax [2]: 2 h
- half-life [2]: 4.83 h
- concentration at 0.5 h (5 mg/kg, Individual Compound 1 Plasma Concentration, daily oral 5 mg/kg, Day 1, Female, 0.5 h): 246 ng/mL
- concentration at 2 h (5 mg/kg, Individual Compound 1 Plasma Concentration, daily oral 5 mg/kg, Day 1, Female, 2 h): 533 ng/mL
- concentration at 8 h (5 mg/kg, Individual Compound 1 Plasma Concentration, daily oral 5 mg/kg, Day 1, Female, 8 h): 432 ng/mL
- concentration at 24 h (5 mg/kg, Individual Compound 1 Plasma Concentration, daily oral 5 mg/kg, Day 1, Female, 24 h): 23.2 ng/mL
- concentration at 1 h (5 mg/kg, Individual Compound 1 Plasma Concentration, daily oral 5 mg/kg, Day 14, Female, 1 h): 428 ng/mL
- concentration at 4 h (5 mg/kg, Individual Compound 1 Plasma Concentration, daily oral 5 mg/kg, Day 14, Female, 4 h): 423 ng/mL
- concentration at 8 h (5 mg/kg, Individual Compound 1 Plasma Concentration, daily oral 5 mg/kg, Day 14, Female, 8 h): 234 ng/mL
- concentration at 12 h (5 mg/kg, Individual Compound 1 Plasma Concentration, daily oral 5 mg/kg, Day 14, Female, 12 h): 112 ng/mL
- concentration at 24 h (5 mg/kg, Individual Compound 1 Plasma Concentration, daily oral 5 mg/kg, Day 14, Female, 24 h): 22.2 ng/mL
- concentration at 0.5 h (5 mg/kg, Mean Compound 1 Plasma Concentration, oral 5 mg/kg, Day 1, 0.5 h, Female): 267 ng/mL
- concentration at 1 h (5 mg/kg, Mean Compound 1 Plasma Concentration, oral 5 mg/kg, Day 1, 1 h, Female): 406 ng/mL
- concentration at 2 h (5 mg/kg, Mean Compound 1 Plasma Concentration, oral 5 mg/kg, Day 1, 2 h, Female): 528 ng/mL
- concentration at 4 h (5 mg/kg, Mean Compound 1 Plasma Concentration, oral 5 mg/kg, Day 1, 4 h, Female): 482 ng/mL
- concentration at 8 h (5 mg/kg, Mean Compound 1 Plasma Concentration, oral 5 mg/kg, Day 1, 8 h, Female): 360 ng/mL
- concentration at 12 h (5 mg/kg, Mean Compound 1 Plasma Concentration, oral 5 mg/kg, Day 1, 12 h, Female): 140 ng/mL
- concentration at 24 h (5 mg/kg, Mean Compound 1 Plasma Concentration, oral 5 mg/kg, Day 1, 24 h, Female): 18.6 ng/mL
- concentration at 0.5 h (5 mg/kg, Mean Compound 1 Plasma Concentration, oral 5 mg/kg, Day 14, 0.5 h, Female): 382 ng/mL
- concentration at 1 h (5 mg/kg, Mean Compound 1 Plasma Concentration, oral 5 mg/kg, Day 14, 1 h, Female): 519 ng/mL
- concentration at 2 h (5 mg/kg, Mean Compound 1 Plasma Concentration, oral 5 mg/kg, Day 14, 2 h, Female): 493 ng/mL
- concentration at 4 h (5 mg/kg, Mean Compound 1 Plasma Concentration, oral 5 mg/kg, Day 14, 4 h, Female): 439 ng/mL
- concentration at 8 h (5 mg/kg, Mean Compound 1 Plasma Concentration, oral 5 mg/kg, Day 14, 8 h, Female): 255 ng/mL
- concentration at 12 h (5 mg/kg, Mean Compound 1 Plasma Concentration, oral 5 mg/kg, Day 14, 12 h, Female): 105 ng/mL
- concentration at 24 h (5 mg/kg, Mean Compound 1 Plasma Concentration, oral 5 mg/kg, Day 14, 24 h, Female): 19.2 ng/mL
- concentration at […] (5 mg/kg, Mean Compound 1 Plasma Concentration, oral 5 mg/kg, Female): 70.7 ng/mL
- AUC(0-inf) [3]: 5440 ng·h/mL
- AUC(0-t) [3]: 5340 ng·h/mL
- Cmax [3]: 528 ng/mL
- Tmax [3]: 2 h
- half-life [3]: 3.82 h
- AUC(0-inf) [4]: 4740 ng·h/mL
- AUC(0-t) [4]: 4620 ng·h/mL
- Cmax [4]: 519 ng/mL
